In patent US20200078468A1, “NEUROTENSIN RECEPTOR BINDING CONJUGATES AND FORMULATIONS THEREOF” (priority 2016, published 2020):
pIC50: −log10 of the molar value. Numbered stars: 1 amine (or outer) side, 2 acyl side, 3 side chain; on linkers, the order of the positions; unused ones are H or OH. Bridge positions count the residues as written; N and C are the ends. Square brackets hold non-standard residues; d marks the D form. Peptide text beside a SMILES is read from it. I, II: the chains in the order shown. * marks the point of attachment. SN38(20-O) = CCc1c2c(nc3ccc(O)cc13)-c1cc3c(c(=O)n1C2)COC(=O)[C@@]3(CC)O*; Hexanoyl(6-succinimido-3yl) = O=C1CC([*:1])C(=O)N1CCCCCC(=O)[*:2]; NMeR = CN[C@@H](CCCNC(=N)N)C(=O)O; Pen = CC(C)(S)[C@H](N)C(=O)O; Tle = CC(C)(C)[C@H](N)C(=O)O

system: SW48 (human colon cancer cells); assay: inhibition of SW48 cell proliferation (CellTiter Glo); assay type: cell-based; details: NTSR1 scrambled compound; 72 hrs; read-out: SW-48 proliferation IC50
Description: Conjugates were assessed in an in vitro assay evaluating inhibition of cell proliferation. SW48 (human colon cancer cells, ATCC®), cells were plated in 96 well, flat-bottomed plates (Costar) at a concentration of 5,000 cells/well. Cells were then incubated at 37° C. with 5% CO2 for 24 hrs. After 24 hrs, cells were treated with 0.01% DMSO or compound. Compounds were added at a starting dose of 10 μM and three fold serial dilutions were done for a total often points. Following compound addition, cells were incubated at 37° C. with 5% CO2 for 72 hrs. Proliferation was measured by CellTiter Glo reagent using the standard protocol (Promega) and a Glomax multi+detection system (Promega). Percent proliferation inhibition was calculated using the following formula: % inhibition=(control−treatment)/control*100. Control is defined as vehicle alone. IC50 curves were generated using the nonlinear regression analysis (four parameter) with GraphPad Prism 6.
Conjugates are assessed for receptor-dependent cytotoxicity by the difference between an NTSR1-targeting conjugate, and the corresponding conjugate with the same linker moiety and active agent where the NTSR1-targeting domain has been scrambled.

Row | SMILES | pIC50
1 | CCc1c2c(nc3ccc(O)cc13)-c1cc3c(c(=O)n1C2)COC(=O)[C@@]3(CC)OC(=O)OCCSSC(C)(C)[C@H](NC(C)=O)C(=O)N1CCC[C@H]1C(=O)N[C@@H](CC(C)C)C(=O)N1CCC[C@H]1C(=O)N[C@@H](CCCNC(=N)N)C(=O)N[C@H](C(=O)N[C@@H](CCCNC(=N)N)C(=O)N[C@@H](Cc1ccc(O)cc1)C(=O)O)C(C)(C)C [Compound 97] | 6.91
2 | COc1cccc2c1C(=O)c1c(O)c3c(c(O)c1C2=O)C[C@@](O)(C(=O)CO)C[C@@H]3O[C@H]1C[C@H](NC(=O)OCc2ccc(NC(=O)[C@H](CCCNC(N)=O)NC(=O)[C@@H](NC(=O)CCCCCN3C(=O)CC(SC(C)(C)[C@H](NC(C)=O)C(=O)N4CCC[C@H]4C(=O)N[C@@H](CC(C)C)C(=O)N4CCC[C@H]4C(=O)N[C@@H](CCCNC(=N)N)C(=O)N[C@H](C(=O)N[C@@H](CCCNC(=N)N)C(=O)N[C@@H](Cc4ccc(O)cc4)C(=O)O)C(C)(C)C)C3=O)C(C)C)cc2)[C@H](O)[C@H](C)O1 (stereo partly drawn) [Compound 89] | 5.59
3 | COc1cc2cc(c1Cl)N(C)C(=O)C[C@H](OC(=O)[C@H](C)N(C)C(=O)CCSC1CC(=O)N(CCCNC(=O)CNC(=O)[C@H](CC(C)C)NC(=O)[C@H](Cc3ccccc3)NC(=O)CNC(=O)CCCCCN3C(=O)CC(SCCC(=O)NCCOCCOCCC(=O)NCCCC[C@H](NC(C)=O)C(=O)N4CCC[C@H]4C(=O)N[C@@H](CC(C)C)C(=O)N4CCC[C@H]4C(=O)N(C)[C@@H](CCCNC(=N)N)C(=O)N[C@H](C(=O)N[C@@H](CCCNC(=N)N)C(=O)N[C@@H](Cc4ccc(O)cc4)C(=O)O)C(C)(C)C)C3=O)C1=O)[C@]1(C)O[C@H]1[C@H](C)[C@@H]1C[C@@](O)(NC(=O)O1)[C@H](OC)/C=C/C=C(\C)C2 (stereo partly drawn) [Compound 83] | 5.74

same assay, conditions: NTSR1 targeted compound; 72 hrs; read-out: SW-48 proliferation IC50

Row | SMILES | pIC50
4 | CCc1c2c(nc3ccc(O)cc13)-c1cc3c(c(=O)n1C2)COC(=O)[C@@]3(CC)OC(=O)CNC(=O)CNC(=O)[C@H](CC(C)C)NC(=O)[C@H](Cc1ccccc1)NC(=O)CNC(=O)CCCCCN1C(=O)CC(SC(C)(C)[C@H](NC(C)=O)C(=O)N2CCC[C@H]2C(=O)N[C@@H](CCCNC(=N)N)C(=O)N(C)[C@@H](CCCNC(=N)N)C(=O)N2CCC[C@H]2C(=O)N[C@@H](Cc2ccc(O)cc2)C(=O)N[C@H](C(=O)N[C@@H](CC(C)C)C(=O)O)C(C)(C)C)C1=O (stereo partly drawn) [Compound 66] (I: Ac-[Pen]PR[NMeR]PY[Tle]L-OH / II: GFLGG-{SN38(20-O)}; linker I:1-II:N via Hexanoyl(6-succinimido-3yl)) | 6.16
5 | CCc1c2c(nc3ccc(O)cc13)-c1cc3c(c(=O)n1C2)COC(=O)[C@@]3(CC)OC(=O)CNC(=O)CNC(=O)[C@H](CC(C)C)NC(=O)[C@H](Cc1ccccc1)NC(=O)CNC(=O)CCCCCN1C(=O)CC(SC(C)(C)[C@H](NC(C)=O)C(=O)N2CCC[C@H]2C(=O)N[C@@H](CCCCN)C(=O)N[C@@H](CCCNC(=N)N)C(=O)N2CCC[C@H]2C(=O)N[C@@H](Cc2ccc(O)cc2)C(=O)N[C@H](C(=O)N[C@@H](CC(C)C)C(=O)O)C(C)(C)C)C1=O (stereo partly drawn) [Compound 68] (I: Ac-[Pen]PKRPY[Tle]L-OH / II: GFLGG-{SN38(20-O)}; linker I:1-II:N via Hexanoyl(6-succinimido-3yl)) | 6.10
6 | CCc1c2c(nc3ccc(O)cc13)-c1cc3c(c(=O)n1C2)COC(=O)[C@@]3(CC)OC(=O)CNC(=O)CNC(=O)[C@H](CC(C)C)NC(=O)[C@H](Cc1ccccc1)NC(=O)CNC(=O)CCCCCN1C(=O)CC(SC(C)(C)[C@H](NC(C)=O)C(=O)N2CCC[C@H]2C(=O)N[C@@H](CCCNC(=N)N)C(=O)N[C@@H](CCCNC(=N)N)C(=O)N2CCC[C@H]2C(=O)N[C@@H](Cc2ccc(O)cc2)C(=O)N[C@H](C(=O)N[C@@H](CC(C)C)C(=O)O)C(C)(C)C)C1=O (stereo partly drawn) [Compound 65] (I: Ac-[Pen]PRRPY[Tle]L-OH / II: GFLGG-{SN38(20-O)}; linker I:1-II:N via Hexanoyl(6-succinimido-3yl)) | 6.10
